Results from ChEMBL document CHEMBL2375306, “Antimicrobial peptides containing unnatural amino acid exhibit potent bactericidal activity against ESKAPE pathogens” (Bioorg Med Chem, 2013).
Values after ≈ are worked out from the molar mass of the structure shown. Square brackets hold non-standard residues; d marks the D form. Peptide text beside a SMILES is read from it. * marks the point of attachment. ξ: configuration not given here. Pro(3ξ,4ξ-(CH2)4) = O=C(O)[C@H]1NCC2CCCCC21; Tic = O=C(O)[C@@H]1Cc2ccccc2CN1; X4 = CC(=O)NC(=O)[C@H](CCCN)N*; Orn = NCCC[C@H](N)C(=O)O; Dab = NCC[C@H](N)C(=O)O

Assays:
Pseudomonas aeruginosa = experiment: Antibacterial activity against Pseudomonas aeruginosa PAO1 after 24 hrs by broth microdilution method; assay type: functional; details: PAO1, 24 h
NHDF [1] = experiment: Cytotoxicity against NHDF at >50 ug/ml after 6 hrs by LDH assay; assay type: cell-based; details: human
Enterococcus faecium = experiment: Antibacterial activity against Enterococcus faecium MMC4 after 24 hrs by broth microdilution method; assay type: functional; details: MMC4, 24 h
Klebsiella pneumoniae = experiment: Antibacterial activity against Klebsiella pneumoniae BAMS clinical isolate 07-18 after 24 hrs by broth microdilution method; assay type: functional; details: BAMS clinical isolate 07-18, 24 h
Klebsiella aerogenes = experiment: Antibacterial activity against Enterobacter aerogenes after 24 hrs by broth microdilution method; assay type: functional
Acinetobacter baumannii = experiment: Antibacterial activity against Acinetobacter baumannii WRAIR clinical isolate 13 after 24 hrs by broth microdilution method; assay type: functional; details: WRAIR clinical isolate 13, 24 h
NHDF [2] = experiment: Cytotoxicity against NHDF at 50 ug/ml after 6 hrs by MTT assay; assay type: cell-based; details: human
NHDF [3] = experiment: Cytotoxicity against NHDF at >50 ug/ml after 6 hrs by MTT assay; assay type: cell-based; details: human
Staphylococcus aureus [4] = experiment: Antibacterial activity against methicillin-sensitive Staphylococcus aureus UAMS-1 after 24 hrs by broth microdilution method; assay type: functional; details: UAMS-1, 24 h
NHDF [5] = experiment: Cytotoxicity against NHDF at 50 ug/ml after 6 hrs by LDH assay; assay type: cell-based; details: human
Staphylococcus aureus [6] = experiment: Antibacterial activity against community-associated methicillin-resistant Staphylococcus aureus USA300 after 24 hrs by broth microdilution method; assay type: functional; details: USA300, 24 h

MIC (Pseudomonas aeruginosa) [µg/mL] | MIC (Enterococcus faecium) [µg/mL] | MIC (Klebsiella pneumoniae) [µg/mL] | MIC (Klebsiella aerogenes) [µg/mL] | MIC (Acinetobacter baumannii) [µg/mL] | MIC (Staphylococcus aureus [4]) [µg/mL] | SMILES | MBC (Pseudomonas aeruginosa) [µg/mL] | Activity (NHDF [1]) | MBC (Enterococcus faecium) [µg/mL] | MBC (Klebsiella pneumoniae) [µg/mL] | MBC (Klebsiella aerogenes) [µg/mL] | MBC (Acinetobacter baumannii) [µg/mL] | Activity (NHDF [2]) | Activity (NHDF [3]) | MBC (Staphylococcus aureus [4]) [µg/mL] | Activity (NHDF [5]) | MIC (Staphylococcus aureus [6]) [µg/mL]
50 (≈ 13.9 µM) | 6.25 (≈ 1.74 µM) | 50 (≈ 13.9 µM) | 50 (≈ 13.9 µM) | 12.5 (≈ 3.47 µM) | 12.5 (≈ 3.47 µM) | CC(C)C[C@H](NC(=O)[C@@H](N)CCCCN)C(=O)N1Cc2ccccc2C[C@H]1C(=O)N1CC2CCCCC2[C@H]1C(=O)N[C@@H](CCCCN)C(=O)NCC(=O)N1Cc2ccccc2C[C@H]1C(=O)N1CC2CCCCC2[C@H]1C(=O)N[C@@H](Cc1ccccc1)C(=O)NCC(=O)N1Cc2ccccc2C[C@H]1C(=O)N1CC2CCCCC2[C@H]1C(=O)N[C@@H](CCCCN)C(=O)NCC(=O)N1Cc2ccccc2C[C@H]1C(=O)N1CC2CCCCC2[C@H]1C(=O)N[C@@H](Cc1ccccc1)C(=O)NCC(=O)N1Cc2ccccc2C[C@H]1C(=O)N1CC2CCCCC2[C@H]1C(=O)N[C@@H](CCCCN)C(=O)NCC(=O)N1Cc2ccccc2C[C@H]1C(=O)N1CC2CCCCC2[C@H]1C(=O)N[C@@H](CCCCN)C(=O)N[C@@H](CCCCN)C(=O)N[C@@H](CCCCN)C(=O)N[C@@H](CCCCN)C(N)=O (stereo partly specified) (H-KL[Tic][Pro(3ξ,4ξ-(CH2)4)]KG[Tic][Pro(3ξ,4ξ-(CH2)4)]FG[Tic][Pro(3ξ,4ξ-(CH2)4)]KG[Tic][Pro(3ξ,4ξ-(CH2)4)]FG[Tic][Pro(3ξ,4ξ-(CH2)4)]KG[Tic][Pro(3ξ,4ξ-(CH2)4)]KKKK-NH2) | 50 (≈ 13.9 µM) | Toxic | 25 (≈ 6.95 µM) | 50 (≈ 13.9 µM) | 50 (≈ 13.9 µM) | 25 (≈ 6.95 µM) | Non-toxic | Toxic | 50 (≈ 13.9 µM) | Non-toxic | 
> 100 | 6.25 (≈ 1.79 µM) | > 100 | > 100 | 12.5 (≈ 3.59 µM) | 50 (≈ 14.4 µM) | CC(C)C[C@H](NC(=O)[C@@H](N)CCCCN)C(=O)N1Cc2ccccc2C[C@H]1C(=O)N1CC2CCCCC2[C@H]1C(=O)NCC(=O)N[C@@H](CCCCN)C(=O)N1Cc2ccccc2C[C@H]1C(=O)N1CC2CCCCC2[C@H]1C(=O)N[C@@H](Cc1ccccc1)C(=O)N1Cc2ccccc2C[C@H]1C(=O)N1CC2CCCCC2[C@H]1C(=O)NCC(=O)N[C@@H](CCCCN)C(=O)N1Cc2ccccc2C[C@H]1C(=O)N1CC2CCCCC2[C@H]1C(=O)N[C@@H](Cc1ccccc1)C(=O)N1Cc2ccccc2C[C@H]1C(=O)N1CC2CCCCC2[C@H]1C(=O)NCC(=O)N[C@@H](CCCCN)C(=O)N1Cc2ccccc2C[C@H]1C(=O)N1CC2CCCCC2[C@H]1C(=O)N[C@@H](CCCCN)C(=O)N[C@@H](CCCCN)C(=O)N[C@@H](CCCCN)C(=O)N[C@@H](CCCCN)C(N)=O (stereo partly specified) (H-KL[Tic][Pro(3ξ,4ξ-(CH2)4)]GK[Tic][Pro(3ξ,4ξ-(CH2)4)]F[Tic][Pro(3ξ,4ξ-(CH2)4)]GK[Tic][Pro(3ξ,4ξ-(CH2)4)]F[Tic][Pro(3ξ,4ξ-(CH2)4)]GK[Tic][Pro(3ξ,4ξ-(CH2)4)]KKKK-NH2) | > 100 |  | 25 (≈ 7.18 µM) | 100 (≈ 28.7 µM) | > 100 | 50 (≈ 14.4 µM) |  |  | 50 (≈ 14.4 µM) |  | 
50 (≈ 16.2 µM) | 12.5 (≈ 4.05 µM) | 50 (≈ 16.2 µM) | 50 (≈ 16.2 µM) | 25 (≈ 8.1 µM) | 25 (≈ 8.1 µM) | CC(C)C[C@H](NC(=O)[C@@H](N)CCN)C(=O)N1Cc2ccccc2C[C@H]1C(=O)N1CC2CCCCC2[C@H]1C(=O)N[C@@H](CCN)C(=O)N1Cc2ccccc2C[C@H]1C(=O)N1CC2CCCCC2[C@H]1C(=O)N[C@@H](Cc1ccccc1)C(=O)N1Cc2ccccc2C[C@H]1C(=O)N1CC2CCCCC2[C@H]1C(=O)N[C@@H](CCN)C(=O)N1Cc2ccccc2C[C@H]1C(=O)N1CC2CCCCC2[C@H]1C(=O)N[C@@H](Cc1ccccc1)C(=O)N1Cc2ccccc2C[C@H]1C(=O)N1CC2CCCCC2[C@H]1C(=O)N[C@@H](CCN)C(=O)N1Cc2ccccc2C[C@H]1C(=O)N1CC2CCCCC2[C@H]1C(=O)N[C@@H](CCN)C(=O)N[C@@H](CCN)C(=O)N[C@@H](CCN)C(=O)N[C@@H](CCN)C(N)=O (stereo partly specified) (H-[Dab]L[Tic][Pro(3ξ,4ξ-(CH2)4)][Dab][Tic][Pro(3ξ,4ξ-(CH2)4)]F[Tic][Pro(3ξ,4ξ-(CH2)4)][Dab][Tic][Pro(3ξ,4ξ-(CH2)4)]F[Tic][Pro(3ξ,4ξ-(CH2)4)][Dab][Tic][Pro(3ξ,4ξ-(CH2)4)][Dab][Dab][Dab][Dab]-NH2) | 100 (≈ 32.4 µM) |  | 25 (≈ 8.1 µM) | 100 (≈ 32.4 µM) | 50 (≈ 16.2 µM) | 100 (≈ 32.4 µM) |  |  | 25 (≈ 8.1 µM) |  | 

The remaining lines, values behind:

SMILES | MIC (Pseudomonas aeruginosa) [µg/mL] | MIC (Enterococcus faecium) [µg/mL] | MIC (Klebsiella pneumoniae) [µg/mL] | MIC (Klebsiella aerogenes) [µg/mL] | MIC (Acinetobacter baumannii) [µg/mL] | MIC (Staphylococcus aureus [4]) [µg/mL] | MBC (Pseudomonas aeruginosa) [µg/mL] | Activity (NHDF [1]) | MBC (Enterococcus faecium) [µg/mL] | MBC (Klebsiella pneumoniae) [µg/mL] | MBC (Klebsiella aerogenes) [µg/mL] | MBC (Acinetobacter baumannii) [µg/mL] | Activity (NHDF [2]) | Activity (NHDF [3]) | MBC (Staphylococcus aureus [4]) [µg/mL] | Activity (NHDF [5]) | MIC (Staphylococcus aureus [6]) [µg/mL]
CC(=O)NCC(=O)N[C@@H](Cc1ccccc1)C(=O)N1Cc2ccccc2C[C@H]1C(=O)N1CC2CCCCC2[C@H]1C(=O)NCC(=O)N[C@@H](CCN)C(=O)N1Cc2ccccc2C[C@H]1C(=O)N1CC2CCCCC2[C@H]1C(=O)NCC(=O)N[C@@H](Cc1ccccc1)C(=O)N1Cc2ccccc2C[C@H]1C(=O)N1CC2CCCCC2[C@H]1C(=O)NCC(=O)N[C@@H](CCN)C(=O)N1Cc2ccccc2C[C@H]1C(=O)N[C@@H](CCN)C(=O)N[C@@H](CCN)C(=O)N[C@@H](CCN)C(=O)N[C@@H](CCN)C(N)=O (stereo partly specified) (Ac-GF[Tic][Pro(3ξ,4ξ-(CH2)4)]G[Dab][Tic][Pro(3ξ,4ξ-(CH2)4)]GF[Tic][Pro(3ξ,4ξ-(CH2)4)]G[Dab][Tic][Dab][Dab][Dab][Dab]-NH2) | 12.5 (≈ 5.5 µM) | 6.25 (≈ 2.75 µM) | 12.5 (≈ 5.5 µM) | 25 (≈ 11 µM) | 6.25 (≈ 2.75 µM) | 50 (≈ 22 µM) | 25 (≈ 11 µM) | Toxic | 50 (≈ 22 µM) | 12.5 (≈ 5.5 µM) | 25 (≈ 11 µM) | 12.5 (≈ 5.5 µM) | Non-toxic | Toxic | 50 (≈ 22 µM) | Non-toxic | 25 (≈ 11 µM)
CC(=O)NCC(=O)N[C@@H](Cc1ccccc1)C(=O)N1Cc2ccccc2C[C@H]1C(=O)N1CC2CCCCC2[C@H]1C(=O)NCC(=O)N[C@@H](CCCN)C(=O)N1Cc2ccccc2C[C@H]1C(=O)N1CC2CCCCC2[C@H]1C(=O)NCC(=O)N[C@@H](Cc1ccccc1)C(=O)N1Cc2ccccc2C[C@H]1C(=O)N1CC2CCCCC2[C@H]1C(=O)NCC(=O)N[C@@H](CCCN)C(=O)N1Cc2ccccc2C[C@H]1C(=O)N[C@@H](CCCN)C(=O)N[C@@H](CCCN)C(=O)N[C@@H](CCCN)C(=O)N[C@@H](CCCN)C(=O)NC(C)=O (stereo partly specified) (Ac-GF[Tic][Pro(3ξ,4ξ-(CH2)4)]G[Orn][Tic][Pro(3ξ,4ξ-(CH2)4)]GF[Tic][Pro(3ξ,4ξ-(CH2)4)]G[Orn][Tic][Orn][Orn][Orn]-X4) | 50 (≈ 20.8 µM) | 12.5 (≈ 5.21 µM) | 50 (≈ 20.8 µM) | 100 (≈ 41.7 µM) | 6.25 (≈ 2.61 µM) | 100 (≈ 41.7 µM) | 50 (≈ 20.8 µM) |  | 50 (≈ 20.8 µM) | 50 (≈ 20.8 µM) | > 100 | 25 (≈ 10.4 µM) |  |  | 100 (≈ 41.7 µM) |  | 
CC(=O)NCC(=O)N[C@@H](Cc1ccccc1)C(=O)N1Cc2ccccc2C[C@H]1C(=O)N1CC2CCCCC2[C@H]1C(=O)NCC(=O)N[C@@H](CC(=O)O)C(=O)N[C@@H](CCCCN)C(=O)N1Cc2ccccc2C[C@H]1C(=O)N1CC2CCCCC2[C@H]1C(=O)NCC(=O)N[C@@H](Cc1ccccc1)C(=O)N1Cc2ccccc2C[C@H]1C(=O)N1CC2CCCCC2[C@H]1C(=O)NCC(=O)N[C@@H](CC(=O)O)C(=O)N[C@@H](CCCCN)C(=O)N1Cc2ccccc2C[C@H]1C(=O)N[C@@H](CCCCN)C(=O)N[C@@H](CCCCN)C(=O)N[C@@H](CCCCN)C(=O)N[C@@H](CCCCN)C(N)=O (stereo partly specified) (Ac-GF[Tic][Pro(3ξ,4ξ-(CH2)4)]GDK[Tic][Pro(3ξ,4ξ-(CH2)4)]GF[Tic][Pro(3ξ,4ξ-(CH2)4)]GDK[Tic]KKKK-NH2) | > 100 | 12.5 (≈ 4.68 µM) | 100 (≈ 37.4 µM) | > 100 | 12.5 (≈ 4.68 µM) | > 100 | > 100 |  | 50 (≈ 18.7 µM) | 100 (≈ 37.4 µM) | > 100 | 25 (≈ 9.36 µM) |  |  | > 100 |  | 
